In PubChem BioAssay AID1845196 (Molecular Pharmacology Branch, DTP, NCI, 2023):
Several values for one entry are separate records, joined by “and”; a condition that tells them apart may be missing. Identical values can stand only once.

Tested on: 292921-168-R tumor spheroid viability
Assay: Anticancer human tumor 292921-168-R patient-derived pancreatic carcinoma cell line growth inhibition
Details: spheroids with HUVEC and MSC; for viability, T/C: stronger effect = lower value
Method in brief: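 Single agents and combinations were tested on spheroids built from tumor cells plus HUVEC and hMSC, at half-log dilutions starting at or near clinical Cmax, else 10 microM; final DMSO 0.25% (v/v).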
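Further: spheroids exposed to compounds for 7 days.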

Which IC50 (curve of first compound, second compound 1 µM) does the source give for Cc1cc(C)c(CNC(=O)c2cc(-c3ccc(CN4CCOCC4)cc3)cc3c2cnn3C2CCCC2)c(=O)[nH]1 + Cn1nnc2c(C(N)=O)ncn2c1=O here?
Its IC50 is over 10 µM.

What about the IC50 (curve of first compound, second compound 3.16 µM) of the same compound?
Its IC50 is over 10 µM.

And the IC50 (curve of first compound, second compound 10 µM)?
The IC50 was over 10 µM.

What about the IC50 (curve of first compound, second compound 31.6 µM) of the same compound?
The IC50 was over 10 µM.

And the IC50 (curve of first compound, second compound 100 µM)?
Its IC50 is over 10 µM.

What about the viability, T/C (second compound 1 µM, first compound 0.0316 µM) of the same compound?
Its viability, T/C is 91.6%.

And the viability, T/C (second compound 1 µM, first compound 0.1 µM)?
Its viability, T/C is 92.7%.

What about the viability, T/C (second compound 1 µM, first compound 0.316 µM) of the same compound?
The viability, T/C was 97.4%.

What about the viability, T/C (second compound 1 µM, first compound 1 µM) of the same compound?
Its viability, T/C is 86.6%.

What about the viability, T/C (second compound 1 µM, first compound 3.16 µM) of the same compound?
The viability, T/C was 78.7%.

And the viability, T/C (second compound 1 µM, first compound 10 µM)?
The viability, T/C was 54.3%.

What about the viability, T/C (second compound 3.16 µM, first compound 0.0316 µM) of the same compound?
Its viability, T/C is 94.2%.

What about the viability, T/C (second compound 3.16 µM, first compound 0.1 µM) of the same compound?
Its viability, T/C is 96.6%.

And the viability, T/C (second compound 3.16 µM, first compound 0.316 µM)?
Its viability, T/C is 94.9%.

What about the viability, T/C (second compound 3.16 µM, first compound 1 µM) of the same compound?
Its viability, T/C is 92.4%.

And the viability, T/C (second compound 3.16 µM, first compound 3.16 µM)?
The viability, T/C was 85.2%.

And the viability, T/C (second compound 3.16 µM, first compound 10 µM)?
Its viability, T/C is 60.4%.

What about the viability, T/C (second compound 10 µM, first compound 0.0316 µM) of the same compound?
The viability, T/C was 86.8%.

What about the viability, T/C (second compound 10 µM, first compound 0.1 µM) of the same compound?
Its viability, T/C is 94.4%.

What about the viability, T/C (second compound 10 µM, first compound 0.316 µM) of the same compound?
The viability, T/C was 96%.

And the viability, T/C (second compound 10 µM, first compound 1 µM)?
The viability, T/C was 92.5%.

What about the viability, T/C (second compound 10 µM, first compound 3.16 µM) of the same compound?
Its viability, T/C is 83.7%.

What about the viability, T/C (second compound 10 µM, first compound 10 µM) of the same compound?
The viability, T/C was 56.1%.

And the viability, T/C (second compound 31.6 µM, first compound 0.0316 µM)?
Its viability, T/C is 88.5%.

And the viability, T/C (second compound 31.6 µM, first compound 0.1 µM)?
Its viability, T/C is 86.4%.

What about the viability, T/C (second compound 31.6 µM, first compound 0.316 µM) of the same compound?
Its viability, T/C is 83.5%.

What about the viability, T/C (second compound 31.6 µM, first compound 1 µM) of the same compound?
Its viability, T/C is 92.5%.

And the viability, T/C (second compound 31.6 µM, first compound 3.16 µM)?
The viability, T/C was 85.7%.

And the viability, T/C (second compound 31.6 µM, first compound 10 µM)?
Its viability, T/C is 51.1%.

What about the viability, T/C (second compound 100 µM, first compound 0.0316 µM) of the same compound?
Its viability, T/C is 83.5%.

What about the viability, T/C (second compound 100 µM, first compound 0.1 µM) of the same compound?
The viability, T/C was 87.2%.

And the viability, T/C (second compound 100 µM, first compound 0.316 µM)?
Its viability, T/C is 83.5%.

What about the viability, T/C (second compound 100 µM, first compound 1 µM) of the same compound?
The viability, T/C was 77.2%.

What about the viability, T/C (second compound 100 µM, first compound 3.16 µM) of the same compound?
Its viability, T/C is 79.1%.

And the viability, T/C (second compound 100 µM, first compound 10 µM)?
The viability, T/C was 52.5%.

O=C(c1cc(Cc2n[nH]c(=O)c3ccccc23)ccc1F)N1CCN(C(=O)C2CC2)CC1 was tested. Which viability, T/C (compound 0.0949 µM) did it give?
Its viability, T/C is 91.5% and 96.1% and 103%.

And the viability, T/C (compound 0.3 µM)?
Its viability, T/C is 102% and 99.1% and 96%.

And the viability, T/C (compound 0.949 µM)?
Its viability, T/C is 91.7% and 100% and 98.5%.

What about the viability, T/C (compound 3 µM) of the same compound?
The viability, T/C was 87.8% and 89.6% and 92.7%.

What about the viability, T/C (compound 9.49 µM) of the same compound?
Its viability, T/C is 66.9% and 61.2% and 64.2%.

And the viability, T/C (compound 30 µM)?
Its viability, T/C is 39.4% and 35.8% and 35.6%.

What about the IC50 (curve of compound) of the same compound?
Its IC50 is 19.2 µM and 15.7 µM and 16.8 µM.

Which results are given for O=C(c1cc(Cc2n[nH]c(=O)c3ccccc23)ccc1F)N1CCN(C(=O)C2CC2)CC1 + COc1cc2c(cc1O)CCNC21CSC2c3c(OC(C)=O)c(C)c4c(c3C(COC1=O)N1C(O)C3Cc5cc(C)c(OC)c(O)c5C(C21)N3C)OCO4?
IC50 (curve of first compound, second compound 30 pM): 8.26 µM; IC50 (curve of first compound, second compound 94.9 pM): 7.07 µM; IC50 (curve of first compound, second compound 0.0003 µM): < 0.0949 µM; IC50 (curve of first compound, second compound 0.000949 µM): < 0.0949 µM; IC50 (curve of first compound, second compound 0.003 µM): < 0.0949 µM; viability, T/C (second compound 30 pM, first compound 0.0949 µM): 99.4%; viability, T/C (second compound 30 pM, first compound 0.3 µM): 103%; viability, T/C (second compound 30 pM, first compound 0.949 µM): 96.6%; viability, T/C (second compound 30 pM, first compound 3 µM): 91.9%; viability, T/C (second compound 30 pM, first compound 9.49 µM): 44.2%; viability, T/C (second compound 30 pM, first compound 30 µM): 21.8%; viability, T/C (second compound 94.9 pM, first compound 0.0949 µM): 94.8%; viability, T/C (second compound 94.9 pM, first compound 0.3 µM): 94%; viability, T/C (second compound 94.9 pM, first compound 0.949 µM): 88%; viability, T/C (second compound 94.9 pM, first compound 3 µM): 82.2%; viability, T/C (second compound 94.9 pM, first compound 9.49 µM): 38.9%; viability, T/C (second compound 94.9 pM, first compound 30 µM): 22.4%; viability, T/C (second compound 0.0003 µM, first compound 0.0949 µM): 48%; viability, T/C (second compound 0.0003 µM, first compound 0.3 µM): 41.3%; viability, T/C (second compound 0.0003 µM, first compound 0.949 µM): 38.6%; viability, T/C (second compound 0.0003 µM, first compound 3 µM): 34.3%; viability, T/C (second compound 0.0003 µM, first compound 9.49 µM): 10.7%; viability, T/C (second compound 0.0003 µM, first compound 30 µM): 13.2%; viability, T/C (second compound 0.000949 µM, first compound 0.0949 µM): 3.75%; viability, T/C (second compound 0.000949 µM, first compound 0.3 µM): 4.31%; viability, T/C (second compound 0.000949 µM, first compound 0.949 µM): 3.14%; viability, T/C (second compound 0.000949 µM, first compound 3 µM): 3.26%; viability, T/C (second compound 0.000949 µM, first compound 9.49 µM): 1.19%; viability, T/C (second compound 0.000949 µM, first compound 30 µM): 0.39%; viability, T/C (second compound 0.003 µM, first compound 0.0949 µM): 0.15%; viability, T/C (second compound 0.003 µM, first compound 0.3 µM): 0.13%; viability, T/C (second compound 0.003 µM, first compound 0.949 µM): 0.13%; viability, T/C (second compound 0.003 µM, first compound 3 µM): 0.23%; viability, T/C (second compound 0.003 µM, first compound 9.49 µM): 0.41%; viability, T/C (second compound 0.003 µM, first compound 30 µM): 1.31%
